Assay results as given in patent publication US20120009280A1, “METHOD OF REDUCING THE RATE OF DEGRADATION OF A BIOLOGICAL MATERIAL” (Bio-Energy Ingredients Limited, priority 2009, published 2012).

Assays:
[1] = pH of suspensions of grain samples in distilled water or PBS; conditions: 1% (w/w) in distilled water
Procedure: The untreated sample (A) was compared visually against the corresponding quicklime-treated sample (B).
On Day 7, 10 g amounts of each sample were suspended in either 90 ml PBS or 90 ml sterile distilled water and shaken for 10 minutes. The pH of each suspension was then measured and compared.
On Day 9, 10 g of each sample was suspended in 90 ml PBS and shaken for 10 minutes. The pH was measured.

total micro-organism = experiment: Total microbial (plate) count of spent brewer's / wet distiller's grains stored at ambient temperature; assay type: cell-based; parameters: total microbial count: unit: cfu/gram
Excerpt: Samples of spent brewer's grains were drawn from the discharge line of a brewery in South Africa. The samples, packed in dry ice in a cold box, were transported over a distance of approximately 40 kilometres to a laboratory. At the laboratory, the samples were thoroughly mixed and initially split into a first portion (Portion 1) and a second portion (Portion 2). The second portion was about twice the size of the first. Portion 1 was left untreated. Material produced from Portion 1 and Portion 2 is designated below using the code “AR” (as received).
Portion 2 was placed on a clean, standard, laboratory screen deck with 1.4 mm apertures supported from below. As much water as possible was manually squeezed out with a clean flat plastic disc and the sample was then manually remixed after the squeezing. The squeezed material was then split into a third portion (Portion 3) and a fourth portion (Portion 4) of approximately the same size. Material produced from Portion 3 and Portion 4 is designated below using the code “SO” (squeezed).
Portion 4 was added to a high speed kitchen food-shredder and shredded for about two minutes. The shredded material was then returned to the 1.4 mm aperture screen and squeezed again, as described above, and manually remixed again after the second squeezing to produce a shredded and squeezed portion (Portion 5). Material produced from Portion 5 is designated below using the code “SH” (shredded).
(§1) Samples of Portion 1 (“AR”), Portion 3 (“SO”) and Portion 5 (“SH”) were then delivered to a microbiological testing facility about 15 kilometres from the treatment laboratory. Each was tested for initial total microbial, yeast and mould counts, respectively.
(§2) Separate untreated samples were similarly stored under insect-proof screens at ambient temperature for seven days (as shown in Tables 1 and 2). During the trial period the ambient temperature ranged from 11 to 33 degrees C.
After exposure to the environment for seven days, all of the samples were tested at a South African National Accreditation System (SANAS) approved microbiological testing facility. Each was tested for total micro-organism, yeast and mould counts to determine the affect of the various treatments.
Samples of spent brewer's grains were drawn from the discharge line of a brewery in South Africa.
(§3) At the laboratory, the samples were thoroughly mixed and initially split into a first portion (Portion 1) and a second portion (Portion 2). Portion 1 was left untreated. A sample of Portion 1, was delivered immediately to a microbiological testing facility about 15 kilometres away from the treatment laboratory and was tested for initial total microbial, yeast and mould counts, respectively.
Samples from Portion 2 were subjected to treatment with varying amounts of a powdered, commercially-available calcium oxide containing approximately 94% calcium oxide (CaO) as shown in Table 32. The treatments varied from 2.5 to 10% (w/w) calcium oxide addition. The samples were stored in batches (according to the calcium oxide treatment) under insect-proof screens at ambient temperature for fifty six days. […] During the trial period the ambient temperature ranged from 10 to 30 degrees C. As this period was the southern hemisphere spring/early summer, the humidity as well as ambient temperatures varied widely.
(§4) Samples from each treatment were drawn every seven days. No further calcium oxide treatment or agitation took place after the initial mix. In each case the entire sample was isolated and delivered to the microbiological testing facility.
(§5) In this trial the same source of wet distiller's grains (again with now partial water removal prior to treatment) was treated.
as §5

yeast = experiment: Yeast count of spent brewer's / wet distiller's grains stored at ambient temperature; assay type: cell-based
mould = experiment: Mould count of spent brewer's / wet distiller's grains stored at ambient temperature; assay type: cell-based
Procedure: as §1, §2
The free moisture content on the initial spent brewer's grains was determined to be 78.1% m/m. After exposure to the environment for seven days, all of the samples were tested at a South African National Accreditation System (SANAS) approved microbiological testing facility. Each was tested for total micro-organism, yeast and mould counts to determine the affect of the various treatments. A similar procedure to that described in K. A. Rosentrater et al, Food Bioprocess Technol (2008) was used for the microbiological evaluation.
as §3, with “respectively. No water removal prior to treatment was done in this experiment as was the case in Example 8 wherein a similar wet material was partially dewatered by pressing and the residue treated with 10% (w/w/) calcium oxide.” for “respectively.”
Samples from Portion 2 were subjected to treatment with varying amounts of a powdered, commercially-available calcium oxide containing approximately 94% calcium oxide (CaO) as shown in Table 32. […] The samples were stored in batches (according to the calcium oxide treatment) under insect-proof screens at ambient temperature for fifty six days. Separate untreated samples were similarly stored under insect-proof screens at ambient temperature for a total of 56 days. During the trial period the ambient temperature ranged from 10 to 30 degrees C. As this period was the southern hemisphere spring/early summer, the humidity as well as ambient temperatures varied widely.
The free moisture content on the initial spent brewer's grains was determined to be 79.4% m/m. After exposure to the environment for seven days, all of the samples were tested at a South African National Accreditation System (SANAS) approved microbiological testing facility. Each was tested for total micro-organism, yeast and mould counts to determine the affect of the various treatments. A similar procedure to that described in K. A. Rosentrater et al, Food Bioprocess Technol (2008) was used for the microbiological evaluation.
as §4
The calcium oxide treatment trial described in Example 9 wherein wet distiller's grains were treated with 2.5%, 5% and 10.0% calcium oxide, respectively, versus untreated material was repeated using lower doses of calcium oxide. In this trial the same source of wet distiller's grains (again with now partial water removal prior to treatment) was treated. Also, the same protocol as described in Example 9 was applied, but at lower doses of calcium oxide i.e. 0.5%, 1.0%, 1.5%, 2.0% and 2.5%, respectively, versus untreated material.
In this trial the same source of wet distiller's grains (again with now partial water removal prior to treatment) was treated. Also, the same protocol as described in Example 9 was applied.

With `[Ca+2].[O-]CC(O)CO.[O-]CC(O)CO` [Ca-DGO powder + granules (1:1)] the pH ([1]; dose 15% (w/w), week 1) was 11.47, the pH ([1]; dose 15% (w/w), week 2) was 7.57 and the pH ([1]; dose 15% (w/w), week 3) was 7.88. It also gave a pH ([1]; dose 15% (w/w), week 4) of 9.29, a pH ([1]; dose 15% (w/w), week 5) of 6.78 and a pH ([1]; dose 15% (w/w), week 6) of 9.27. The pH ([1]; dose 15% (w/w), week 7) was 7.23, the pH ([1]; dose 15% (w/w), week 8) was 9.18 and the pH ([1]; dose 15% (w/w), week 9) was 8.93. It also gave a Total plate count (total micro-organism; dose 15% (w/w), week 0) of 540 cfu/gram, a Total plate count (total micro-organism; dose 15% (w/w), week 1) of 50 cfu/gram and a Total plate count (total micro-organism; dose 15% (w/w), week 2) of 710 cfu/gram. The Total plate count (total micro-organism; dose 15% (w/w), week 3) was 70 cfu/gram, the Total plate count (total micro-organism; dose 15% (w/w), week 4) was <10 cfu/gram and the Total plate count (total micro-organism; dose 15% (w/w), week 6) was 150 cfu/gram. For the same compound, the Total plate count (total micro-organism; dose 15% (w/w), week 7) was 660 cfu/gram, the Total plate count (total micro-organism; dose 15% (w/w), week 8) was 4200 cfu/gram and the Total plate count (total micro-organism; dose 15% (w/w), week 9) was 45000 cfu/gram. For the same compound, the “Yeast Count” value (yeast; dose 15% (w/w), week 1) was <10 cfu/gram, the “Yeast Count” value (yeast; dose 15% (w/w), week 2) was <10 cfu/gram and the “Yeast Count” value (yeast; dose 15% (w/w), week 3) was <10 cfu/gram. For the same compound, the “Yeast Count” value (yeast; dose 15% (w/w), week 4) was <10 cfu/gram, the “Yeast Count” value (yeast; dose 15% (w/w), week 5) was 20 cfu/gram and the “Yeast Count” value (yeast; dose 15% (w/w), week 6) was <10 cfu/gram. The “Yeast Count” value (yeast; dose 15% (w/w), week 7) was <10 cfu/gram, the “Yeast Count” value (yeast; dose 15% (w/w), week 8) was <10 cfu/gram and the “Yeast Count” value (yeast; dose 15% (w/w), week 9) was <10 cfu/gram. The “Mould Count” value (mould; dose 15% (w/w), week 1) was <10 cfu/gram, the “Mould Count” value (mould; dose 15% (w/w), week 2) was <10 cfu/gram and the “Mould Count” value (mould; dose 15% (w/w), week 3) was <10 cfu/gram. For the same compound, the “Mould Count” value (mould; dose 15% (w/w), week 4) was <10 cfu/gram, the “Mould Count” value (mould; dose 15% (w/w), week 5) was <10 cfu/gram and the “Mould Count” value (mould; dose 15% (w/w), week 6) was <10 cfu/gram. The “Mould Count” value (mould; dose 15% (w/w), week 7) was <10 cfu/gram, the “Mould Count” value (mould; dose 15% (w/w), week 8) was <10 cfu/gram and the “Mould Count” value (mould; dose 15% (w/w), week 9) was <10 cfu/gram.

For `[Ca+2].[O-]CC(O)CO.[O-]CC(O)CO` [Ca-DGO powder], the pH ([1]; dose 15% (w/w), week 0) was 11.50, the pH ([1]; dose 15% (w/w), week 1) was 11.73 and the pH ([1]; dose 15% (w/w), week 2) was 7.33. The pH ([1]; dose 15% (w/w), week 3) was 7.38, the pH ([1]; dose 15% (w/w), week 4) was 8.83 and the pH ([1]; dose 15% (w/w), week 6) was 9.18. The pH ([1]; dose 15% (w/w), week 8) was 9.14, the pH ([1]; dose 15% (w/w), week 9) was 9.07 and the Total plate count (total micro-organism; dose 15% (w/w), week 0) was 40 cfu/gram. The Total plate count (total micro-organism; dose 15% (w/w), week 1) was 80 cfu/gram, the Total plate count (total micro-organism; dose 15% (w/w), week 3) was 100 cfu/gram and the Total plate count (total micro-organism; dose 15% (w/w), week 4) was 10 cfu/gram. The Total plate count (total micro-organism; dose 15% (w/w), week 6) was 50 cfu/gram, the Total plate count (total micro-organism; dose 15% (w/w), week 7) was 40 cfu/gram and the Total plate count (total micro-organism; dose 15% (w/w), week 8) was 70 cfu/gram. The Total plate count (total micro-organism; dose 15% (w/w), week 9) was 10 cfu/gram, the “Yeast Count” value (yeast; dose 15% (w/w), week 0) was <10 cfu/gram and the “Yeast Count” value (yeast; dose 15% (w/w), week 1) was <10 cfu/gram. For the same compound, the “Yeast Count” value (yeast; dose 15% (w/w), week 2) was <10 cfu/gram, the “Yeast Count” value (yeast; dose 15% (w/w), week 3) was <10 cfu/gram and the “Yeast Count” value (yeast; dose 15% (w/w), week 4) was <10 cfu/gram. The “Yeast Count” value (yeast; dose 15% (w/w), week 5) was <10 cfu/gram, the “Yeast Count” value (yeast; dose 15% (w/w), week 6) was <10 cfu/gram and the “Yeast Count” value (yeast; dose 15% (w/w), week 7) was <10 cfu/gram. For the same compound, the “Yeast Count” value (yeast; dose 15% (w/w), week 8) was <10 cfu/gram, the “Yeast Count” value (yeast; dose 15% (w/w), week 9) was <10 cfu/gram and the “Mould Count” value (mould; dose 15% (w/w), week 0) was <10 cfu/gram. The “Mould Count” value (mould; dose 15% (w/w), week 1) was <10 cfu/gram, the “Mould Count” value (mould; dose 15% (w/w), week 2) was <10 cfu/gram and the “Mould Count” value (mould; dose 15% (w/w), week 3) was <10 cfu/gram. The “Mould Count” value (mould; dose 15% (w/w), week 4) was <10 cfu/gram, the “Mould Count” value (mould; dose 15% (w/w), week 5) was <10 cfu/gram and the “Mould Count” value (mould; dose 15% (w/w), week 6) was <10 cfu/gram. For the same compound, the “Mould Count” value (mould; dose 15% (w/w), week 7) was <10 cfu/gram, the “Mould Count” value (mould; dose 15% (w/w), week 8) was <10 cfu/gram and the “Mould Count” value (mould; dose 15% (w/w), week 9) was 350 cfu/gram.

For `[Ca+2].[O-]CC(O)CO.[O-]CC(O)CO` [calcium diglyceroxide granules, calcium diglyceroxide], the total microbial count (total micro-organism; granules 10% (w/w), 2 week time point) was “below 10”, the total microbial count (total micro-organism; granules 10% (w/w), 3 week time point) was 540 and the total microbial count (total micro-organism; granules 10% (w/w), 4 week time point) was 60. It also gave a total microbial count (total micro-organism; granules 10% (w/w), 5 week time point) of 650 and an effective period (total micro-organism; granules 10% (w/w), Example 18) of ~7 weeks.

In the case of Ca(OH2, the pH ([1]; 6.6% (w/w) powder, week 1) is reported as 11.55, the pH ([1]; 6.6% (w/w) powder, week 2) is reported as 11.26 and the pH ([1]; 6.6% (w/w) powder, week 3) is reported as 12.10. The pH ([1]; 6.6% (w/w) powder, week 4) was 8.23, the pH ([1]; 6.6% (w/w) powder, week 5) was 11.47 and the Total plate count (total micro-organism; 6.6% (w/w) powder, week 1) was 420 cfu/gram. The Total plate count (total micro-organism; 6.6% (w/w) powder, week 2) was 140 cfu/gram, the Total plate count (total micro-organism; 6.6% (w/w) powder, week 3) was 640 cfu/gram and the Total plate count (total micro-organism; 6.6% (w/w) powder, week 4) was 170 cfu/gram. The Total plate count (total micro-organism; 6.6% (w/w) powder, week 5) was 20 cfu/gram, the “Yeast Count” value (yeast; 6.6% (w/w) powder, week 1) was 10 cfu/gram and the “Yeast Count” value (yeast; 6.6% (w/w) powder, week 2) was 10 cfu/gram. The “Yeast Count” value (yeast; 6.6% (w/w) powder, week 3) was 10 cfu/gram, the “Yeast Count” value (yeast; 6.6% (w/w) powder, week 4) was 120 cfu/gram and the “Yeast Count” value (yeast; 6.6% (w/w) powder, week 5) was 10 cfu/gram. The “Mould Count” value (mould; 6.6% (w/w) powder, week 1) was 10 cfu/gram, the “Mould Count” value (mould; 6.6% (w/w) powder, week 2) was 10 cfu/gram and the “Mould Count” value (mould; 6.6% (w/w) powder, week 3) was 10 cfu/gram. For the same compound, the “Mould Count” value (mould; 6.6% (w/w) powder, week 4) was 10 cfu/gram and the “Mould Count” value (mould; 6.6% (w/w) powder, week 5) was 10 cfu/gram.
